The values that follow come from patent publication US10064863B2, “Formulations of 3-(5-amino-2-methyl-4-oxo-4H-quinazolin-3-yl)-piperidine-2,6-dione” (Celgene Corporation, priority 2015, dated 2018).

A short description of the data set: Degradation of Compound A by hydrolysis. In kind it is physicochemical. The text has this:
In another aspect is an anhydrous pharmaceutical composition and dosage form. Such anhydrous forms can reduce or eliminate degradation of active ingredients in the composition resulting from heat or water exposure. For example, the addition of water (e.g., 5 percent) is widely accepted in the pharmaceutical arts as a means of simulating shelf-life, e.g., long-term storage in order to determine characteristics such as shelf-life or the stability of formulations over time. See, e.g., Jens T. Carstensen, Drug Stability: Principles & Practice, 2d. Ed., Marcel Dekker, NY, N.Y., 1995, pp. 379-80. The effect of water on a formulation can be of great significance since moisture or humidity are commonly encountered during manufacture, handling, packaging, storage, shipment, and use of formulations.

`Cc1nc2cccc(N)c2c(=O)n1C1CCC(=O)NC1=O` (stereo not shown) [Compound A, 3-(5-amino-2-methyl-4-oxo-4H-quinazolin-3-yl)-piperidine-2,6-dione]: the degradation by hydrolysis entry is listed as “easily degraded by hydrolysis”.
